Test results taken from BindingDB's records for doi:10.1074/jbc.M606784200 (Chul, 2007).

Key:
[1] = molecular target: T1, Aldo-keto reductase family 1 member C3 (Homo sapiens, UniProt P42330); experiment: Scintillation Proximity Assay (SPA); conditions: pH 6; 22 °C
T1 sequence (P42330 whole entry): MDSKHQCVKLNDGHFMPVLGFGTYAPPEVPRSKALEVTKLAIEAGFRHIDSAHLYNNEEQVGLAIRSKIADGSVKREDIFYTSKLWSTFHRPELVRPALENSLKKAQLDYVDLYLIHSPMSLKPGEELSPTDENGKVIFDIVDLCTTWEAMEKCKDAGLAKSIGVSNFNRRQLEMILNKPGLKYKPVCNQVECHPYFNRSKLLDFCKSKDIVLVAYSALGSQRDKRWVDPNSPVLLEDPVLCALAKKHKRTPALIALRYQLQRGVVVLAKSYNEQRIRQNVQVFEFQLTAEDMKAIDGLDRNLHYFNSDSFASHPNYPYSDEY
Description: SPA beads conjugated to anti-mouse IgG were incubated overnight in buffer with anti-testosterone monoclonal antibody. The enzymatic reaction was monitored by its conversion of 4-androstene-3, 17-dione to testosterone. The amount of [14C] testosterone produced in each well was determined by scintillation counting on a Perkin Elmer TopCount instrument and collected as DPMs. The data was then analyzed and percent inhibition and/or IC50 values, based on 10 point serially diluted curves in duplicate or triplicate, were calculated using Microsoft Excel and XLFit programs.

[2] = molecular target: T1, Aldo-keto reductase family 1 member C3; experiment: Inhibition Study on the Interconversion of Testosterone to Androstenedione (4-dione); conditions: pH 7.5; 37 °C
Description: A radioactive assay was used for the enzyme kinetics in the presence of EM1404 at different concentrations for its Ki determination. Reactions were initiated by the addition of enzyme to the reaction mixture containing substrate and test compounds. After the reaction, the steroids were extracted, separated by TLC migration, and analyzed by phosphorimaging. The Km for testosterone oxidation in the absence of EM-1404, and four apparent Km values in the presence of 1, 3, 10, and 25 nM EM-1404, were determined. Ki value was further determined by a plot of Km vs. the inhibitor concentration.

| Compound | IC50 [1] [nM] | Ki [2] [nM] |
| --- | --- | --- |
| CC1(C)CC[C@@]2(CCC3C4CCc5cc(C(N)=O)ccc5C4CC[C@@]32C)OC1=O (stereo partly drawn) [(2R,15'S)-5,5,15'-trimethyl-6-oxospiro[oxane-2,14'-tetracyclo[8.7.0.0^{2,7}.0^{11,15}]heptadecane]-2',4',6'-triene-5'-carboxamide] | 3.2 | 6.9 |
| COCCOc1cc2c(cc1C(=O)ON)C1CC[C@@]3(C)C(CC[C@@]34CCC(C)(C)C(=O)O4)C1CC2 (stereo partly drawn) [(2R,15'S)-5'-(2-methoxyethoxy)-5,5,15'-trimethyl-6-oxospiro[oxane-2,14'-tetracyclo[8.7.0.0^{2,7}.0^{11,15}]heptadecane]-2',4',6'-triene-4'-carboxylate] | 9.5 |  |
